From ChEMBL document CHEMBL5543097, “Synthesis and structure-activity relationships of novel 14-membered 2-fluoro ketolides with structural modification at the C11 position” (Eur J Med Chem, 2024)
≈ marks a conversion by molar mass, not a printed value.

Experiments:
[1] = system: Staphylococcus epidermidis; assay: Antibacterial activity against erythromycin-resistant Staphylococcus epidermidis 19-5 assessed as inhibition of visible bacterial growth incubated for 18 hrs by broth microdilution method; type: functional
Moraxella catarrhalis [2] = assay: Antibacterial activity against Moraxella catarrhalis BCA 19-31 assessed as inhibition of bacterial growth incubated for 24 hrs by CLSI based broth microdilution method; type: functional; settings: BCA 19-31, 24 h
[3] = system: Staphylococcus epidermidis; assay: Antibacterial activity against erythromycin-resistant Staphylococcus epidermidis 19-9 assessed as inhibition of visible bacterial growth incubated for 18 hrs by broth microdilution method; type: functional
[4] = system: Staphylococcus epidermidis; assay: Antibacterial activity against erythromycin-resistant Staphylococcus epidermidis 19-8 assessed as inhibition of visible bacterial growth incubated for 18 hrs by broth microdilution method; type: functional
[5] = Cytotoxicity against mouse AML12 cells assessed as reduction in cell viability incubated for 48 hrs by MTT assay; type: toxicity, cell-based
Streptococcus pyogenes = assay: Antibacterial activity against erythromycin-resistant Streptococcus pyogenes ATCC 19615 assessed as inhibition of visible bacterial growth incubated for 18 hrs by broth microdilution method; type: functional
[6] = system: Staphylococcus epidermidis; assay: Antibacterial activity against erythromycin-resistant Staphylococcus epidermidis 19-6 assessed as inhibition of visible bacterial growth incubated for 18 hrs by broth microdilution method; type: functional
[7] = system: Staphylococcus epidermidis; assay: Antibacterial activity against erythromycin-resistant Staphylococcus epidermidis 19-11 assessed as inhibition of visible bacterial growth incubated for 18 hrs by broth microdilution method; type: functional
Streptococcus agalactiae [8] = assay: Antibacterial activity against erythromycin-resistant Streptococcus agalactiae 19-8 assessed as inhibition of visible bacterial growth incubated for 18 hrs by broth microdilution method; type: functional
Streptococcus pneumoniae [9] = assay: Antibacterial activity against erythromycin-resistant Streptococcus pneumoniae SPN19-14 assessed as inhibition of visible bacterial growth incubated for 18 hrs by broth microdilution method; type: functional
Streptococcus pneumoniae [10] = assay: Antibacterial activity against erythromycin-resistant Streptococcus pneumoniae SPN19-8 assessed as inhibition of visible bacterial growth incubated for 18 hrs by broth microdilution method; type: functional
Streptococcus pneumoniae [11] = assay: Antibacterial activity against erythromycin-resistant Streptococcus pneumoniae SPN19-13 assessed as inhibition of visible bacterial growth incubated for 18 hrs by broth microdilution method; type: functional
[12] = system: Staphylococcus epidermidis; assay: Antibacterial activity against erythromycin-resistant Staphylococcus epidermidis 19-4 assessed as inhibition of visible bacterial growth incubated for 18 hrs by broth microdilution method; type: functional
Streptococcus agalactiae [13] = assay: Antibacterial activity against erythromycin-resistant Streptococcus agalactiae 19-9 assessed as inhibition of visible bacterial growth incubated for 18 hrs by broth microdilution method; type: functional
Haemophilus influenzae [14] = assay: Antibacterial activity against Haemophilus influenzae HIN 19-15 assessed as inhibition of bacterial growth incubated for 20 to 24 hrs by CLSI based broth microdilution method; type: functional; settings: time 20-24 hrs
Haemophilus influenzae [15] = assay: Antibacterial activity against Haemophilus influenzae HIN 19-18 assessed as inhibition of bacterial growth incubated for 20 to 24 hrs by CLSI based broth microdilution method; type: functional; settings: HIN 19-18, time 20-24 hrs
Moraxella catarrhalis [16] = assay: Antibacterial activity against Moraxella catarrhalis BCA 19-5 assessed as inhibition of bacterial growth incubated for 24 hrs by CLSI based broth microdilution method; type: functional; settings: Moraxella catarrhalis, BCA 19-5, 24 h, read-out: MIC
Haemophilus influenzae [17] = assay: Antibacterial activity against Haemophilus influenzae HIN 20-18 assessed as inhibition of bacterial growth incubated for 20 to 24 hrs by CLSI based broth microdilution method; type: functional; settings: time 20-24 hrs
Moraxella catarrhalis [18] = assay: Antibacterial activity against Moraxella catarrhalis BCA 19-6 assessed as inhibition of bacterial growth incubated for 24 hrs by CLSI based broth microdilution method; type: functional; settings: Moraxella catarrhalis, BCA 19-6, 24 h, read-out: MIC

SMILES	MIC [1]	MIC (Moraxella catarrhalis [2])	MIC [3]	MIC [4]	CC50 at 48 h [5]	MIC (Streptococcus pyogenes)	MIC [6]	MIC [7]	MIC (Streptococcus agalactiae [8])	MIC (Streptococcus pneumoniae [9])	MIC (Streptococcus pneumoniae [10])	MIC (Streptococcus pneumoniae [11])	MIC [12]	MIC (Streptococcus agalactiae [13])	MIC (Haemophilus influenzae [14])	MIC (Haemophilus influenzae [15])	MIC (Moraxella catarrhalis [16])	MIC (Haemophilus influenzae [17])	MIC (Moraxella catarrhalis [18])
CC[C@H]1OC(=O)[C@H](C)C(=O)[C@H](C)[C@@H](O[C@@H]2O[C@H](C)C[C@H](N(C)C)[C@H]2O)[C@](C)(OC)C[C@@H](C)C(=O)[C@H](C)[C@H]2N(CCCOC(=O)Nc3ccc(C(F)(F)F)cc3)C(=O)O[C@]12C	0.06 µg/mL (≈ 0.0699 µM)	0.06 µg/mL (≈ 0.0699 µM)	0.5 µg/mL (≈ 0.583 µM)	0.06 µg/mL (≈ 0.0699 µM)	73.8 µM	< 0.03 µg/mL	0.25 µg/mL (≈ 0.291 µM)	0.125 µg/mL (≈ 0.146 µM)	< 0.03 µg/mL	0.125 µg/mL (≈ 0.146 µM)	0.125 µg/mL (≈ 0.146 µM)	0.125 µg/mL (≈ 0.146 µM)	0.125 µg/mL (≈ 0.146 µM)	0.5 µg/mL (≈ 0.583 µM)	4 µg/mL (≈ 4.66 µM)	–	–	–	–
CC[C@H]1OC(=O)[C@@](C)(F)C(=O)[C@H](C)[C@@H](O[C@@H]2O[C@H](C)C[C@H](N(C)C)[C@H]2O)[C@](C)(OC)C[C@@H](C)C(=O)[C@H](C)[C@H]2N(CCCOC(=O)Nc3cc(C)ccc3C)C(=O)O[C@]12C	–	0.125 µg/mL (≈ 0.15 µM)	–	–	33.1 µM	–	–	–	–	–	–	–	–	–	8 µg/mL (≈ 9.57 µM)	8 µg/mL (≈ 9.57 µM)	0.125 µg/mL (≈ 0.15 µM)	16 µg/mL (≈ 19.1 µM)	0.125 µg/mL (≈ 0.15 µM)
CC[C@H]1OC(=O)[C@H](C)C(=O)[C@H](C)[C@@H](O[C@@H]2O[C@H](C)C[C@H](N(C)C)[C@H]2O)[C@](C)(OC)C[C@@H](C)C(=O)[C@H](C)[C@H]2N(CCCOC(=O)Nc3ccc(C)cc3)C(=O)O[C@]12C	0.125 µg/mL (≈ 0.155 µM)	1 µg/mL (≈ 1.24 µM)	0.5 µg/mL (≈ 0.622 µM)	< 0.03 µg/mL	20.8 µM	< 0.03 µg/mL	0.125 µg/mL (≈ 0.155 µM)	0.125 µg/mL (≈ 0.155 µM)	< 0.03 µg/mL	0.25 µg/mL (≈ 0.311 µM)	0.5 µg/mL (≈ 0.622 µM)	0.25 µg/mL (≈ 0.311 µM)	0.125 µg/mL (≈ 0.155 µM)	1 µg/mL (≈ 1.24 µM)	32 µg/mL (≈ 39.8 µM)	32 µg/mL (≈ 39.8 µM)	0.125 µg/mL (≈ 0.155 µM)	–	0.25 µg/mL (≈ 0.311 µM)
CC[C@H]1OC(=O)[C@@](C)(F)C(=O)[C@H](C)[C@@H](O[C@@H]2O[C@H](C)C[C@H](N(C)C)[C@H]2O)[C@](C)(OC)C[C@@H](C)C(=O)[C@H](C)[C@H]2N(CCCOC(=O)Nc3ccccc3OC)C(=O)O[C@]12C	0.06 µg/mL (≈ 0.0716 µM)	0.125 µg/mL (≈ 0.149 µM)	0.25 µg/mL (≈ 0.298 µM)	0.06 µg/mL (≈ 0.0716 µM)	83.8 µM	< 0.03 µg/mL	0.125 µg/mL (≈ 0.149 µM)	0.125 µg/mL (≈ 0.149 µM)	< 0.03 µg/mL	0.125 µg/mL (≈ 0.149 µM)	0.125 µg/mL (≈ 0.149 µM)	0.125 µg/mL (≈ 0.149 µM)	0.06 µg/mL (≈ 0.0716 µM)	0.5 µg/mL (≈ 0.597 µM)	8 µg/mL (≈ 9.55 µM)	–	11.1 µg/mL (≈ 13.2 µM)	–	0.41 µg/mL (≈ 0.489 µM)
CC[C@H]1OC(=O)[C@@](C)(F)C(=O)[C@H](C)[C@@H](O[C@@H]2O[C@H](C)C[C@H](N(C)C)[C@H]2O)[C@](C)(OC)C[C@@H](C)C(=O)[C@H](C)[C@H]2N(CCCOC(=O)Nc3ccc(-c4ccccc4)cc3)C(=O)O[C@]12C	< 0.03 µg/mL	1 µg/mL (≈ 1.13 µM)	0.5 µg/mL (≈ 0.566 µM)	0.25 µg/mL (≈ 0.283 µM)	20.7 µM	< 0.03 µg/mL	1 µg/mL (≈ 1.13 µM)	0.5 µg/mL (≈ 0.566 µM)	< 0.03 µg/mL	0.125 µg/mL (≈ 0.141 µM)	1 µg/mL (≈ 1.13 µM)	1 µg/mL (≈ 1.13 µM)	0.125 µg/mL (≈ 0.141 µM)	4 µg/mL (≈ 4.52 µM)	32 µg/mL (≈ 36.2 µM)	8 µg/mL (≈ 9.05 µM)	–	–	1 µg/mL (≈ 1.13 µM)
CC[C@H]1OC(=O)[C@@](C)(F)C(=O)[C@H](C)[C@@H](O[C@@H]2O[C@H](C)C[C@H](N(C)C)[C@H]2O)[C@](C)(OC)C[C@@H](C)C(=O)[C@H](C)[C@H]2N(CCCOC(=O)Nc3cccc(C(F)(F)F)c3)C(=O)O[C@]12C	0.5 µg/mL (≈ 0.571 µM)	4 µg/mL (≈ 4.57 µM)	1 µg/mL (≈ 1.14 µM)	0.5 µg/mL (≈ 0.571 µM)	12.4 µM	< 0.03 µg/mL	0.5 µg/mL (≈ 0.571 µM)	0.25 µg/mL (≈ 0.285 µM)	< 0.03 µg/mL	2 µg/mL (≈ 2.28 µM)	2 µg/mL (≈ 2.28 µM)	2 µg/mL (≈ 2.28 µM)	0.5 µg/mL (≈ 0.571 µM)	8 µg/mL (≈ 9.13 µM)	64 µg/mL (≈ 73.1 µM)	64 µg/mL (≈ 73.1 µM)	1 µg/mL (≈ 1.14 µM)	–	1 µg/mL (≈ 1.14 µM)
